According to patent US9078897B1, “Concentrated, inhalable antibiotic formulation” (ARADIGM CORPORATION, priority 2006, dated 2015):

Key:
P. aeruginosa = settings: cited from earlier work
IL-1 = IL-1 levels in lungs after 14 days of inhalation; assay type: in vivo, rats; settings: then 28 day recovery evaluation
Description: The explanation for this surprising effect may be that the presence of free ciprofloxacin in the lung attenuates the release of cytokines which attract macrophages into the lung.

| levels of IL-1 (IL-1) | Compound | activity against P. aeruginosa (P. aeruginosa) |
| --- | --- | --- |
| – | CC[C@H]1OC(=O)[C@H](C)[C@@H](O[C@H]2C[C@@](C)(OC)[C@@H](O)[C@H](C)O2)[C@H](C)[C@@H](O[C@@H]2O[C@H](C)C[C@H](N(C)C)[C@H]2O)[C@](C)(O)C[C@@H](C)CN(C)[C@H](C)[C@@H](O)[C@]1(C)O [azithromycin] | no direct activity |
| return to baseline values | O=C(O)c1cn(C2CC2)c2cc(N3CCNCC3)c(F)cc2c1=O [free ciprofloxacin, ciprofloxacin] | – |
| – | NC[C@H]1O[C@H](O[C@H]2[C@H](O)[C@@H](O[C@H]3O[C@H](CO)[C@@H](O)[C@H](N)[C@H]3O)[C@H](N)C[C@@H]2N)[C@H](N)C[C@@H]1O [tobramycin] | possesses activity |
